Data published in patent publication US9181234B2, “Antibacterial compounds” (priority 2010, dated 2015).
Values after ≈ are worked out from the molar mass of the structure shown.

Assays:
physchem = conditions: for solubility at 24 h: kinetic from dmso stock
In short: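 DMSO doubling dilutions were diluted twenty-fold into 100 mM citrate (pH 4), PBS (pH 7.4) or carbonate-bicarbonate (pH 9). After 24 h equilibration at room temperature, absorbance was read at 620 nm. The reported value is the highest concentration without measurable precipitate.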

[1] = tested on: Staphylococcus aureus (Isolate ID ATCC 29213); assay: Antibacterial activity, MIC, S. aureus; format: cell-based; conditions: broth microdilution or agar dilution; for MIC: Staphylococcus aureus, ATCC29213, Gram positive strain
In short: (§1)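 MICs were determined by broth microdilution or agar dilution following CLSI guidelines (M7-A7), testing susceptibility in liquid or on solid media.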

[2] = tested on: Enterococcus faecalis (Isolate ID ATCC 29212); assay: Antibacterial activity, MIC, E. faecalis; format: cell-based; conditions: Enterococcus faecalis, ATCC29212; Gram positive strain; broth microdilution or agar dilution
Method: Bacterial Assay: Determination of Antibacterial Activity
Compounds of the invention were tested for antimicrobial activity by susceptibility testing in liquid or on solid media. MICs for compounds against each strain were determined by the broth microdilution or agar dilution method according to the guidelines of the Clinical Laboratories and Standards Institute, formerly the National Committee for Clinical Laboratory Standards (Clinical Laboratories and Standards Institute. Methods for Dilution Antimicrobial Susceptibility Tests for Bacteria That Grow Aerobically; Approved Standard—Seventh Edition. Document M7-A7. CLSI, Wayne, Pa., 2006; Clinical Laboratories and Standards Institute. The gram positive bacterial strains tested include S. aureus (Staphylococcus aureus (Isolate ID ATCC 29213)), E. faecalis (Enterococcus faecalis (Isolate ID ATCC 29212)) and S. pyogenes (Streptococcus pyogenes (Isolate ID ATCC 51339)). The gram negative bacterial strains tested include H. influenzae (Haemophilus influenzae (Isolate ID ATCC 49247))

[3] = tested on: Streptococcus pyogenes (Isolate ID ATCC 51339); assay: Antibacterial activity, MIC, S. pyogenes; format: cell-based; conditions: broth microdilution or agar dilution; for MIC: Streptococcus pyogenes, ATCC51339, Gram positive strain
In short: as §1

[4] = tested on: Haemophilus influenzae (Isolate ID ATCC 49247); assay: Antibacterial activity, MIC, H. influenzae; format: cell-based; conditions: Gram negative strain, broth microdilution or agar dilution; for MIC: Haemophilus influenzae, ATCC49247
In short: as §1

[5] = pH 7.4, aqueous buffer, Solubility (pH 7.4)
[6] = pH 7.4, aqueous buffer, Solubility Range
[7] = pH 7.4, aqueous buffer, Max Solubility
[8] = pH 7.4, aqueous buffer, Solubility Range (maximum solubility)

## CCNC(=O)Nc1nc2cc(-c3cnc(N4CCCCC4(C)C(=O)O)nc3)cc(-c3ccccn3)c2s1 (centres unmarked) [Compound 2]
physchem; [5]
  solubility at 24 h: 6.25 µg/mL (≈ 12.1 µM)
physchem; [6]
  solubility at 24 h: < 12.5 µg/mL
[1]
  MIC: 0.25 to 1 µg/mL (≈ 0.483 to 1.93 µM)
[2]
  MIC: 0.25 to 1 µg/mL (≈ 0.483 to 1.93 µM)
[3]
  MIC: 0.25 to 1 µg/mL (≈ 0.483 to 1.93 µM)
[4]
  MIC: 1 to 16 µg/mL (≈ 1.93 to 30.9 µM)

## CCNC(=O)Nc1nc2cc(-c3cnc(N4CCC(O)C(C)(C(=O)O)C4)nc3)cc(-c3ccccn3)c2s1 (centres unmarked) [Compound 3]
physchem; [5]
  solubility at 24 h: 400 µg/mL (≈ 750 µM)
physchem; [6]
  solubility at 24 h: 400 to 800 µg/mL (≈ 750 to 1500 µM)
[1]
  MIC: 1 to 16 µg/mL (≈ 1.87 to 30 µM)
[2]
  MIC: 0.25 to 1 µg/mL (≈ 0.469 to 1.87 µM)
[3]
  MIC: ≤ 0.25 µg/mL
[4]
  MIC: 1 to 16 µg/mL (≈ 1.87 to 30 µM)

## CCNC(=O)Nc1nc2cc(-c3cnc(N4CCC(C)(C(=O)O)CC4)c(C)c3)cc(-c3ccccn3)c2s1 [Compound 5]
physchem; [5]
  solubility at 24 h: ≥ 800 µg/mL
physchem; [6]
  solubility at 24 h: > 800 µg/mL
[1]
  MIC: ≤ 0.25 µg/mL
[2]
  MIC: ≤ 0.25 µg/mL
[3]
  MIC: ≤ 0.25 µg/mL
[4]
  MIC: > 16 µg/mL

## CCNC(=O)Nc1nc2cc(-c3cnc(N4CCC(C)(C(=O)O)CC4)nc3)cc(-c3cc(C)ccn3)c2s1 [Compound 6, 1-[5-[2-(ethylcarbamoylamino)-7-(4-methyl-2-pyridyl)-1,3-benzothiazol-5-yl]pyrimidin-2-yl]-4-methyl-piperidine-4-carboxylic acid]
physchem; [5]
  solubility at 24 h: 400 µg/mL (≈ 752 µM)
physchem; [6]
  solubility at 24 h: 400 to 800 µg/mL (≈ 752 to 1500 µM)
[1]
  MIC: ≤ 0.25 µg/mL
[2]
  MIC: ≤ 0.25 µg/mL
[3]
  MIC: ≤ 0.25 µg/mL
[4]
  MIC: 1 to 16 µg/mL (≈ 1.88 to 30.1 µM)

## CCNC(=O)Nc1nc2cc(-c3cnc(N4CCC(C)(C(=O)O)CC4)nc3)cc(-c3ccc(OC)c(OC)n3)c2s1 [Compound 7]
physchem; [5]
  solubility at 24 h: 400 µg/mL (≈ 692 µM)
physchem; [6]
  solubility at 24 h: 400 to 800 µg/mL (≈ 692 to 1380 µM)
[1]
  MIC: ≤ 0.25 µg/mL
[2]
  MIC: ≤ 0.25 µg/mL
[3]
  MIC: ≤ 0.25 µg/mL
[4]
  MIC: 0.25 to 1 µg/mL (≈ 0.433 to 1.73 µM)

## CCNC(=O)Nc1nc2cc(-c3cnc(N4CCC(C)(C(=O)O)CC4)nc3)cc(CC)c2s1 [Compound 37, 1-{5-[7-Ethyl-2-(3-ethyl-ureido)-benzothiazol-5-yl]-pyrimidin-2-yl}-4-methyl-piperidine-4-carboxylic acid]
[1]
  MIC: 0.25 to 1 µg/mL (≈ 0.534 to 2.13 µM)
[2]
  MIC: ≤ 0.25 µg/mL
[3]
  MIC: 1 to 16 µg/mL (≈ 2.13 to 34.1 µM)
[4]
  MIC: > 16 µg/mL

## CCNC(=O)Nc1nc2cc(-c3cnc(N4CCC(C)(C(=O)O)CC4)nc3)cc(C3CCCCC3)c2s1 [Compound 39, 1-{5-[7-Cyclohexyl-2-(3-ethyl-ureido)-benzothiazol-5-yl]-pyrimidin-2-yl}-4-methyl-piperidine-4-carboxylic acid]
[1]
  MIC: 1 to 16 µg/mL (≈ 1.91 to 30.6 µM)
[2]
  MIC: ≤ 0.25 µg/mL
[3]
  MIC: > 16 µg/mL
[4]
  MIC: > 16 µg/mL

## CCNC(=O)Nc1nc2cc(-c3cnc(N4CCC(CC)(C(=O)O)CC4)nc3)cc(-c3cc(=O)[nH]cn3)c2s1 [Compound 111]
[1]
  MIC: > 16 µg/mL
[2]
  MIC: 1 to 16 µg/mL (≈ 1.82 to 29.2 µM)
[3]
  MIC: 1 to 16 µg/mL (≈ 1.82 to 29.2 µM)
[4]
  MIC: > 16 µg/mL

## CCNC(=O)Nc1nc2cc(-c3cnc(N4CCC(CC)(C(=O)O)CC4)s3)cc(-c3ccccn3)c2s1 [Compound 221, 4-Ethyl-1-[5-[2-(ethylcarbamoylamino)-7-(2-pyridyl)-1,3-benzothiazol-5-yl]thiazol-2-yl]piperidine-4-carboxylic acid]
physchem; [7]
  solubility at 24 h: ≥ 800 µg/mL
physchem; [5]
  solubility at 24 h: ≥ 800 µg/mL
physchem; [6]
  solubility at 24 h: > 800 µg/mL
physchem; [8]
  solubility at 24 h: > 800 µg/mL
[1]
  MIC: ≤ 0.25 µg/mL
[3]
  MIC: ≤ 0.25 µg/mL
[4]
  MIC: 1 to 16 µg/mL (≈ 1.86 to 29.8 µM)

## CCNC(=O)Nc1nc2cc(-c3cnc(NC4CCC(C)(C(=O)O)CC4)nc3)cc(-c3ccccn3)c2s1 (centres unmarked) [Compound 222]
physchem; [7]
  solubility at 24 h: ≥ 800 µg/mL
physchem; [5]
  solubility at 24 h: ≥ 800 µg/mL
physchem; [6]
  solubility at 24 h: > 800 µg/mL
physchem; [8]
  solubility at 24 h: > 800 µg/mL
[1]
  MIC: ≤ 0.25 µg/mL
[3]
  MIC: ≤ 0.25 µg/mL
[4]
  MIC: 0.25 to 1 µg/mL (≈ 0.47 to 1.88 µM)

## CCNC(=O)Nc1nc2cc(-c3cnc(N4CCC(CC)(C(=O)O)CC4)nc3)cc(/C(CC)=N\OC)c2s1 [Compound 223, (E/Z)-4-ethyl-1-(5-(2-(3-ethylureido)-7-(1-(methoxyimino)propyl)benzo[d]thiazol-5-yl)pyrimidin-2-yl)piperidine-4-carboxylic acid]
physchem; 24 h, pH 7.4
  Solubility (pH 7.4): 100 μg/mL
physchem; pH 9, aqueous buffer, Max Solubility
  solubility at 24 h: 400 µg/mL (≈ 741 µM)
physchem; pH 9, aqueous buffer, Solubility Range (maximum solubility)
  solubility at 24 h: 400 to 800 µg/mL (≈ 741 to 1480 µM)
[1]; Gram positive strain
  Antibacterial Activity (MIC) S. aureus (ATCC 29213): A (“A” activity ≦0.25 μg/mL)
[3]; Gram positive strain
  Antibacterial Activity (MIC) S. pyogenes (ATCC 51339): A (“A” activity ≦0.25 μg/mL)
[4]
  Antibacterial Activity (MIC) H. influenzae (ATCC 49247): C (“C” activity >1.0 μg/mL-16 μg/mL)

## CCNC(=O)Nc1nc2cc(-c3cnc(N4CCC(CC)(C(=O)O)CC4)nc3)cc(/C(CC)=N/OC)c2s1 [Compound 224, 4-ethyl-1-[5-[2-(ethylcarbamoylamino)-7-[(E)-C-ethyl-N-methoxy-carbonimidoyl]-1,3-benzothiazol-5-yl]pyrimidin-2-yl]piperidine-4-carboxylic acid]
physchem; [7]
  solubility at 24 h: ≥ 800 µg/mL
physchem; [5]
  solubility at 24 h: ≥ 800 µg/mL
physchem; [6]
  solubility at 24 h: > 800 µg/mL
physchem; [8]
  solubility at 24 h: > 800 µg/mL
[1]
  MIC: ≤ 0.25 µg/mL
[3]
  MIC: ≤ 0.25 µg/mL
[4]
  MIC: 1 to 16 µg/mL (≈ 1.85 to 29.6 µM)

## CCNC(=O)Nc1nc2cc(-c3cnc(N4CCC(CC)(C(=O)O)CC4)nc3)cc(/C=N\OC)c2s1 [Compound 225, 4-Ethyl-1-[5-[2-(ethylcarbamoylamino)-7-[(Z)-methoxyiminomethyl]-1,3-benzothiazol-5-yl]pyrimidin-2-yl]piperidine-4-carboxylic acid]
physchem; [7]
  solubility at 24 h: ≥ 800 µg/mL
physchem; [5]
  solubility at 24 h: ≥ 800 µg/mL
physchem; [6]
  solubility at 24 h: > 800 µg/mL
physchem; [8]
  solubility at 24 h: > 800 µg/mL
[1]
  MIC: ≤ 0.25 µg/mL
[3]
  MIC: ≤ 0.25 µg/mL
[4]
  MIC: 0.25 to 1 µg/mL (≈ 0.489 to 1.95 µM)

## CCNC(=O)Nc1nc2cc(-c3cnc(N4CCC(CC)(C(=O)O)CC4)nc3)cc(-c3ncc(C)cn3)c2s1 [Compound 226]
physchem; [7]
  solubility at 24 h: ≥ 800 µg/mL
physchem; [5]
  solubility at 24 h: ≥ 800 µg/mL
physchem; [6]
  solubility at 24 h: > 800 µg/mL
physchem; [8]
  solubility at 24 h: > 800 µg/mL
[1]
  MIC: ≤ 0.25 µg/mL
[3]
  MIC: ≤ 0.25 µg/mL
[4]
  MIC: 0.25 to 1 µg/mL (≈ 0.457 to 1.83 µM)

## CCNC(=O)Nc1nc2cc(-c3cnc(N4CCC(C)(C(=O)O)CC4)nc3)cc(-n3cccn3)n2n1 [Compound 227, 1-(5-{2-[(ethylcarbamoyl)amino]-5-(1H-pyrazol-1-yl)[1,2,4]triazolo[1,5-a]pyridin-7-yl}pyrimidin-2-yl)-4-methylpiperidine-4-carboxylic acid]
physchem; [7]
  solubility at 24 h: 400 µg/mL (≈ 815 µM)
physchem; [5]
  solubility at 24 h: 400 µg/mL (≈ 815 µM)
physchem; [6]
  solubility at 24 h: 400 to 800 µg/mL (≈ 815 to 1630 µM)
physchem; [8]
  solubility at 24 h: 400 to 800 µg/mL (≈ 815 to 1630 µM)
[1]
  MIC: 1 to 16 µg/mL (≈ 2.04 to 32.6 µM)
[3]
  MIC: 1 to 16 µg/mL (≈ 2.04 to 32.6 µM)
[4]
  MIC: 1 to 16 µg/mL (≈ 2.04 to 32.6 µM)

## CCNC(=O)Nc1nc2cc(-c3cnc(N4CCC(CC)(C(=O)O)CC4)nc3)cc(-c3ncccn3)c2s1 [Compound 228]
physchem; [7]
  solubility at 24 h: 200 µg/mL (≈ 375 µM)
physchem; [5]
  solubility at 24 h: 200 µg/mL (≈ 375 µM)
physchem; [6]
  solubility at 24 h: 12.5 to 400 µg/mL (≈ 23.5 to 751 µM)
physchem; [8]
  solubility at 24 h: 12.5 to 400 µg/mL (≈ 23.5 to 751 µM)
[1]
  MIC: ≤ 0.25 µg/mL
[3]
  MIC: ≤ 0.25 µg/mL
[4]
  MIC: 1 to 16 µg/mL (≈ 1.88 to 30 µM)

## CCNC(=O)Nc1nc2cc(-c3cnc(N4CCC(CC)(C(=O)O)CC4)nc3)cc(-c3ccccn3)c2[nH]1 [Compound 229, 4-Ethyl-1-(5-(2-(3-ethylureido)-7-(pyridin-2-yl)-1H-benzoimidazol-5-yl)pyrimidin-2-yl)piperidine-4-carboxylic acid]
physchem; pH 7.4, aqueous buffer, Solubility (pH 7.4), pH 7.4 (PBS), 24 hours at room temperature, turbidimetric
  solubility at 24 h: 100 µg/mL (≈ 194 µM)
physchem; pH 7.4, aqueous buffer, Solubility Range, pH 7.4
  solubility at 24 h: 12.5 to 400 µg/mL (≈ 24.3 to 777 µM)
physchem; pH 9, aqueous buffer, Max Solubility, maximum of pH 4, 7.4 and 9, shown at pH 9
  solubility at 24 h: 200 µg/mL (≈ 389 µM)
physchem; pH 9, aqueous buffer, Solubility Range (maximum solubility), maximum of pH 4, 7.4 and 9, shown at pH 9
  solubility at 24 h: 12.5 to 400 µg/mL (≈ 24.3 to 777 µM)
[1]
  MIC: ≤ 0.25 µg/mL
[3]
  MIC: ≤ 0.25 µg/mL
[4]
  MIC: 1 to 16 µg/mL (≈ 1.94 to 31.1 µM)
